Data reported in the NIST ThermoML archive (doi:10.1021/je6005423).

Experiment: molar heat capacity at constant pressure
Details: 101.33 kPa, Crystal

CN(C)c1ccncc1 [4-(dimethylamino)pyridine]
Details | molar heat capacity at constant pressure [J/K/mol]
80.03 K | 64.47
83.52 K | 66.81
86.44 K | 69.05
89.41 K | 71.03
92.44 K | 72.95
95.51 K | 74.9
98.51 K | 76.86
101.43 K | 78.68
104.42 K | 80.51
107.48 K | 82.3
110.47 K | 83.92
113.41 K | 85.67
116.41 K | 87.31
119.47 K | 89.01
122.49 K | 90.57
125.46 K | 92.11
128.49 K | 93.69
131.59 K | 95.38
134.65 K | 96.78
137.66 K | 98.3
140.65 K | 99.76
143.69 K | 101.22
146.8 K | 102.9
149.88 K | 104.47
152.93 K | 105.97
155.94 K | 107.42
158.93 K | 108.62
161.98 K | 109.91
165.1 K | 111.54
168.19 K | 113.06
171.25 K | 114.49
174.28 K | 115.97
177.29 K | 117.2
180.27 K | 118.57
183.32 K | 120.19
186.44 K | 121.88
189.53 K | 123.23
192.6 K | 124.43
195.65 K | 125.95
198.67 K | 127.3
201.68 K | 128.65
204.66 K | 130
207.72 K | 131.46
210.84 K | 133.09
213.94 K | 134.61
217.02 K | 135.82
220.08 K | 139.06
223.12 K | 141.26
226.12 K | 143.32
229.09 K | 145.3
232.06 K | 146.84
235.11 K | 149.01
238.15 K | 150.96
241.18 K | 152.05
244.19 K | 153.79
247.18 K | 155.15
250.16 K | 156.56
253.13 K | 157.38
256.16 K | 158.57
259.24 K | 159.8
262.29 K | 161.74
265.4 K | 163.21
268.51 K | 165.52
271.55 K | 167.5
274.51 K | 168.7
277.42 K | 169.84
280.39 K | 171.69
283.34 K | 173.55
286.27 K | 175.43
289.25 K | 177.99
292.28 K | 179.13
295.28 K | 180.15
298.29 K | 181.32
